Data taken from ChEMBL document CHEMBL1127090, “In vitro cytotoxicity of GC sequence directed alkylating agents related to distamycin” (J Med Chem, 1993).

Assays:
[1] = system: K562; test: Inhibitory activity against K-562 (human chronic myeloid Leukemia) cells; assay type: functional, cell-based
[2] = system: Nucleic Acid; test: Apparent binding constant to poly (dA.dT) DNA was evaluated by measuring the loss of ethidium fluorescence; assay type: nucleic-acid assay
[3] = system: Nucleic Acid; test: Apparent binding constant to poly (dG.dC) DNA was evaluated by measuring the loss of ethidium fluorescence; assay type: nucleic-acid assay
[4] = organism: Bos taurus; test: Apparent binding constant to calf thymus DNA was evaluated by measuring the loss of ethidium fluorescence
[5] = system: Tequatrovirus T4; test: Apparent binding constant to T4 coliphage DNA was evaluated by measuring the loss of ethidium fluorescence; assay type: functional
[6] = system: DMS-114; test: Cytotoxicity against the DMS114 Small Cell Lung Cancer cell line from human cancer.; assay type: functional; settings: read-out: LC50 (the source's name)
[7] = system: RXF 393; test: Cytotoxicity against the RXF-393 Renal Cancer cell line from human cancer.; assay type: functional; settings: read-out: LC50 (the source's name)
[8] = system: HOP-62; test: Cytotoxicity against the HOP-62 Non-Small Cell Lung Cancer cell line from human cancer; assay type: functional; settings: read-out: LC50 (the source's name)
[9] = system: M19-MEL; test: Cytotoxicity against the M19-MEL Melanoma cell line from human cancer.; assay type: functional; settings: read-out: LC50 (the source's name)
[10] = system: OVCAR-3; test: Cytotoxicity against the OVCAR-3 Ovarian Cancer cell line from human cancer.; assay type: functional; settings: read-out: LC50 (the source's name)
[11] = system: SN12C; test: Cytotoxicity against the SN12C Renal Cancer cell line from human cancer.; assay type: functional; settings: read-out: LC50 (the source's name)
[12] = system: NCI-H23; test: Cytotoxicity against the NCI-H23 Non-Small Cell Lung Cancer cell line from human cancer.; assay type: functional; settings: read-out: LC50 (the source's name)
[13] = system: HCC 2998; test: Cytotoxicity against the HCC2998 Colon Cancer cell line from human cancer.; assay type: functional; settings: read-out: LC50 (the source's name)
[14] = system: U-251; test: Cytotoxicity against the U251 CNS Cancer cell line from human cancer.; assay type: functional; settings: read-out: LC50 (the source's name)
[15] = system: EKVX; test: Cytotoxicity against the […] Non-Small Cell Lung Cancer cell line from human cancer; assay type: functional; settings: read-out: LC50 (the source's name)
[16] = system: SK-MEL-28; test: Cytotoxicity against the SK-MEL-28 Melanoma cell line from human cancer.; assay type: functional; settings: read-out: LC50 (the source's name)
[17] = system: Malme-3M; test: Cytotoxicity against the MALME-3M Melanoma cell line from human cancer.; assay type: functional; settings: read-out: LC50 (the source's name)
[18] = system: OVCAR-4; test: Cytotoxicity against the OVCAR-4 Ovarian Cancer cell line from human cancer.; assay type: functional; settings: read-out: LC50 (the source's name)
[19] = system: HL-60; test: Cytotoxicity against the HL-60 (TB) Leukemia cell line from human cancer.; assay type: functional; settings: read-out: LC50 (the source's name)
[20] = system: SF-268; test: Cytotoxicity against the SF-268 CNS Cancer cell line from human cancer.; assay type: functional; settings: read-out: LC50 (the source's name)
[21] = system: SNB-75; test: Cytotoxicity against the SNB-75 CNS Cancer cell line from human cancer.; assay type: functional; settings: read-out: LC50 (the source's name)
[22] = system: MOLT-4; test: Cytotoxicity against the Molt-4 Leukemia cell line from human cancer.; assay type: functional; settings: read-out: LC50 (the source's name)
[23] = system: COLO 205; test: Cytotoxicity against the COLO-205 Colon Cancer cell line from human cancer.; assay type: functional; settings: read-out: LC50 (the source's name)
[24] = system: KM12; test: Cytotoxicity against the KM12 Colon Cancer cell line from human cancer.; assay type: functional; settings: read-out: LC50 (the source's name)
[25] = system: SW-620; test: Cytotoxicity against the SW-620 Colon Cancer cell line from human cancer.; assay type: functional; settings: read-out: LC50 (the source's name)
[26] = system: SK-MEL-2; test: Cytotoxicity against the SK-MEL-2 Melanoma cell line from human cancer.; assay type: functional; settings: read-out: LC50 (the source's name)
[27] = system: SK-OV-3; test: Cytotoxicity against the SK-OV-3 Ovarian Cancer cell line from human cancer.; assay type: functional; settings: read-out: LC50 (the source's name)
[28] = system: K562; test: Cytotoxicity against the K-562 Leukemia cell line from human cancer.; assay type: functional; settings: read-out: LC50 (the source's name)
[29] = system: DMS-273; test: Cytotoxicity against the DMS273 Small Cell Lung Cancer cell line from human cancer.; assay type: functional; settings: read-out: LC50 (the source's name)

SMILES: CN(C)CCNC(=O)c1nc(NC(=O)c2nc(NC(=O)CBr)cn2C)cn1C
- IC50 [1]: 400 µM

SMILES: CCBr
- K app [2]: 9.5e+06 M⁻¹

SMILES: CN(C)CCNC(=O)c1nc(NC=O)cn1C
- K app [3]: 2000 M⁻¹
- K app [4]: 25000 M⁻¹

SMILES: N[C@@H](Cc1ccc(N(CCCl)CCCl)cc1)C(=O)O [MELPHALAN]
- IC50 [1]: 35 µM

SMILES: CN(C)CCNC(=O)c1nc(NC(=O)c2nc(NC=O)cn2C)cn1C
- IC50 [1]: > 500 µM
- K app [3]: 23000 M⁻¹
- K app [4]: 32000 M⁻¹
- K app [5]: 40000 M⁻¹
- K app [2]: 17000 M⁻¹

SMILES: CN(C)CCNC(=O)c1nc(NC(=O)c2nc(NC(=O)C(Cl)Cl)cn2C)cn1C
- IC50 [1]: > 500 µM

SMILES: CN(C)CCNC(=O)c1nc(NC(=O)c2nc(NC(=O)c3ccc(N(CCCl)CCCl)cc3)cn2C)cn1C
- CC50 [6]: 5.83 µM
- CC50 [7]: 50.3 µM
- IC50 [1]: 12.5 µM
- CC50 [8]: 52.3 µM
- CC50 [9]: 5.64 µM
- CC50 [10]: 56 µM
- CC50 [11]: 15.6 µM
- CC50 [12]: 47.1 µM
- CC50 [13]: 33.7 µM
- CC50 [14]: 6.73 µM
- CC50 [15]: 47.5 µM
- CC50 [16]: 5.69 µM
- CC50 [17]: 6.14 µM
- K app [3]: 455000 M⁻¹
- K app [4]: 456000 M⁻¹
- CC50 [18]: 34.2 µM
- CC50 [19]: 7.84 µM
- CC50 [20]: 50 µM
- K app [5]: 236000 M⁻¹
- K app [2]: 475000 M⁻¹
- CC50 [21]: 41 µM
- CC50 [22]: 18.1 µM
- CC50 [23]: 5.88 µM
- CC50 [24]: 47 µM
- CC50 [25]: 9.95 µM
- CC50 [26]: 7.17 µM
- CC50 [27]: 52.9 µM
- CC50 [28]: 17.2 µM

SMILES: CN(C)CCNC(=O)c1nc(NC(=O)c2nc(NC(=O)C3CC3)cn2C)cn1C
- IC50 [1]: > 500 µM

SMILES: CN(C)CCNC(=O)c1nc(NC(=O)c2nc(NC(=O)c3nc(NC(=O)c4ccc(N(CCCl)CCCl)cc4)cn3C)cn2C)cn1C
- CC50 [6]: 0.54 µM
- CC50 [7]: 0.66 µM
- IC50 [1]: 0.3 µM
- CC50 [8]: 1.17 µM
- CC50 [9]: 0.56 µM
- CC50 [10]: 0.72 µM
- CC50 [11]: 0.61 µM
- CC50 [12]: 0.96 µM
- CC50 [13]: 0.68 µM
- CC50 [14]: 0.5 µM
- CC50 [15]: 0.88 µM
- CC50 [16]: 0.91 µM
- CC50 [17]: 2.63 µM
- K app [3]: 495000 M⁻¹
- K app [4]: 591000 M⁻¹
- CC50 [18]: 0.61 µM
- CC50 [19]: 0.72 µM
- CC50 [20]: 0.77 µM
- K app [5]: 168000 M⁻¹
- K app [2]: 950000 M⁻¹
- CC50 [21]: 0.61 µM
- CC50 [22]: 0.98 µM
- CC50 [23]: 0.97 µM
- CC50 [24]: 0.96 µM
- CC50 [29]: 0.99 µM
- CC50 [25]: 0.79 µM
- CC50 [26]: 0.65 µM
- CC50 [27]: 0.83 µM
- CC50 [28]: 0.58 µM

SMILES: CN(C)CCNC(=O)c1nc(NC(=O)c2nc(NC(=O)c3nc(NC=O)cn3C)cn2C)cn1C
- K app [3]: 613000 M⁻¹
- K app [4]: 774000 M⁻¹
- K app [5]: 667000 M⁻¹
- K app [2]: 594000 M⁻¹

SMILES: Cn1cc(NC(=O)c2cc(NC(=O)c3cc(NC=O)cn3C)cn2C)cc1C(=O)NCCC(=N)N [STALLIMYCIN]
- K app [3]: 203000 M⁻¹
- K app [4]: 774000 M⁻¹
- K app [5]: 650000 M⁻¹
- K app [2]: 3.48e+07 M⁻¹

SMILES: CN(C)CCNC(=O)c1nc(NC(=O)c2nc(NC(=O)CCl)cn2C)cn1C
- IC50 [1]: 350 µM
